Experimental data: US11297835B2, “Aqueous compositions of perillic acid compounds” (B.R.A.I.N. BIOTECHNOLOGY RESEARCH AND INFORMATION NETWORK AG, priority 2016, dated 2022)

Columns and labels:
Test in all cases: MIC, microdilution method adapted from DIN EN ISO 20776-1:2006
Format in all cases: cell-based
[1] = tested on: Staphylococcus aureus ATCC®6538; settings: no growth after 24 h and 72 h
Experimental: (§1) The antimicrobial activity of sodium perillate was examined in vitro using the microdilution method adapted from DIN EN ISO 20776-1:2006. R-Perillic acid and S-perillic acid were used as reference compounds. All experiments were done in 96-well plates in a final volume of 200 μL. Stock solutions of the investigated compounds were prepared in 25 mM buffer. The procedure was conducted as following: 4 μL of the particular stock solution were mixed with 196 μL culture medium containing a defined inoculum of the respective target strain. Sterile controls (not inoculated) and growth controls (buffer in-stead of compound added) were performed. All compound concentrations were tested in triplicate. The following strains were examined: Escherichia coli ATCC®8739, Pseudomonas aeruginosa ATCC®9027, Stapyhlococcus aureus ATCC®6538, Candida albicans ATCC®10231 and Aspergillus brasiliensis ATCC®16404. The following culture media were used: Mueller-Hinton II Bouillon (Escherichia coli, Pseudomonas aeruginosa and Staphylococcus aureus), yeast peptone dextrose (Candida albicans) and potato dextrose (Aspergillus brasiliensis). All culture media were buffered with 25 mM MES-buffer. For compound testing the plates were incubated at 37° C. (Escherichia coli, Pseudomonas aeruginosa and Staphylococcus aureus), at 28° C. (Candida albicans) and at 25° C. (Aspergillus brasiliensis). Plates were evaluated after 24 h and 72 h, respectively. The minimal inhibitory concentration is defined as the concentration where no microbial growth was observed after 24 h and 72 h incubation at the specified temperature.
(§2) Table 1 Determination of the minimal inhibition concentration (MIC, % w/v) of sodium perillate against five classical spoiling organisms under acidic (pH<6.5) and alkaline (pH>7.5) conditions using the microdilution method adapted according to DIN EN ISO 20776-1:2006. The experiments were performed in micro-well plates in a final volume of 200 μL. MIC-values are given according to the following letter code. A>1% w/v, B=0.5-1% w/v, C=0.1-0.5% w/v. D<0.1% w/v.

[2] = tested on: Pseudomonas aeruginosa ATCC®9027; settings: no growth after 24 h and 72 h
Experimental: as §1, §2

[3] = tested on: Candida albicans ATCC®10231; settings: no growth after 24 h and 72 h
Experimental: as §1, §2

[4] = tested on: Escherichia coli ATCC®8739; settings: no growth after 24 h and 72 h
Experimental: as §1, §2

[5] = tested on: Aspergillus brasiliensis ATCC®16404; settings: pH <6.5; no growth after 24 h and 72 h
Experimental: as §1, §2

| Compound | MIC ([1]; pH <6.5) | MIC ([1]; pH >7.5) | MIC ([2]; pH <6.5) | MIC ([2]; pH >7.5) | MIC ([3]; pH <6.5) | MIC ([3]; pH >7.5) | MIC ([4]; pH <6.5) | MIC ([4]; pH >7.5) | MIC [5] |
| --- | --- | --- | --- | --- | --- | --- | --- | --- | --- |
| C=C(C)[C@@H]1CC=C(C(=O)O)CC1 [S-Perillic Acid, S-perillic acid] | D (D<0.1% w/v) | B (B=0.5-1% w/v) | B (B=0.5-1% w/v) | A (A>1% w/v) | D (D<0.1% w/v) | C (C=0.1-0.5% w/v) | C (C=0.1-0.5% w/v) | B (B=0.5-1% w/v) | D (D<0.1% w/v) |
| C=C(C)[C@H]1CC=C(C(=O)O)CC1 [R-Perillic Acid, R-Perillic acid] | D (D<0.1% w/v) | B (B=0.5-1% w/v) | B (B=0.5-1% w/v) | A (A>1% w/v) | D (D<0.1% w/v) | C (C=0.1-0.5% w/v) | C (C=0.1-0.5% w/v) | B (B=0.5-1% w/v) | D (D<0.1% w/v) |
